The NIST ThermoML archive (doi:10.1021/je300603d)

Experiment: mn = molality of the nth substance listed, in mol/kg
Conditions: 101 kPa, Liquid; for electrical conductivity: Alternating current cell with electrodes; for viscosity: Falling or rolling sphere viscometry; for mass density: Vibrating tube method

F[B-](F)(F)F.[Na+] [sodium tetrafluoroborate] + CCCCn1cc[n+](C)c1.F[B-](F)(F)F
Conditions | electrical conductivity [S/m] | mass density [kg/m3] | viscosity [mPa·s]
238.15 K, m1 = 0.058 | 0.00083 | – | –
238.15 K, m1 = 0.1159 | 0.00077 | – | –
238.15 K, m1 = 0.1739 | 0.00071 | – | –
258.15 K, m1 = 0.058 | 0.0211 | – | –
258.15 K, m1 = 0.1159 | 0.0201 | – | –
258.15 K, m1 = 0.1739 | 0.0188 | – | –
278.15 K, m1 = 0.0273 | – | 1218 | –
278.15 K, m1 = 0.054 | – | 1219.4 | –
278.15 K, m1 = 0.058 | 0.1075 | 1219.2 | 400.2
278.15 K, m1 = 0.0676 | – | 1220.7 | –
278.15 K, m1 = 0.0903 | – | 1221.3 | –
278.15 K, m1 = 0.1069 | – | 1222.4 | –
278.15 K, m1 = 0.1159 | 0.103 | 1222.8 | 421.4
278.15 K, m1 = 0.1377 | – | 1224.3 | –
278.15 K, m1 = 0.1739 | 0.0986 | 1226.2 | 454.8
288.15 K, m1 = 0.0273 | – | 1210.7 | –
288.15 K, m1 = 0.054 | – | 1212.2 | –
288.15 K, m1 = 0.058 | – | 1212.1 | 204.4
288.15 K, m1 = 0.0676 | – | 1213.4 | –
288.15 K, m1 = 0.0903 | – | 1214 | –
288.15 K, m1 = 0.1069 | – | 1215.1 | –
288.15 K, m1 = 0.1159 | – | 1215.5 | 215.5
288.15 K, m1 = 0.1377 | – | 1217 | –
288.15 K, m1 = 0.1739 | – | 1218.9 | 232.6
298.15 K, m1 = 0.0273 | – | 1203.5 | –
298.15 K, m1 = 0.054 | – | 1204.9 | –
298.15 K, m1 = 0.058 | 0.341 | 1205 | 115.5
298.15 K, m1 = 0.0676 | – | 1206.1 | –
298.15 K, m1 = 0.0903 | – | 1206.8 | –
298.15 K, m1 = 0.1069 | – | 1207.9 | –
298.15 K, m1 = 0.1159 | 0.328 | 1208.3 | 121.4
298.15 K, m1 = 0.1377 | – | 1209.8 | –
298.15 K, m1 = 0.1739 | 0.316 | 1211.6 | 130.4
308.15 K, m1 = 0.0273 | – | 1196.3 | –
308.15 K, m1 = 0.054 | – | 1197.7 | –
308.15 K, m1 = 0.058 | – | 1198 | 70.66
308.15 K, m1 = 0.0676 | – | 1199 | –
308.15 K, m1 = 0.0903 | – | 1199.6 | –
308.15 K, m1 = 0.1069 | – | 1200.7 | –
308.15 K, m1 = 0.1159 | – | 1201.1 | 74.52
308.15 K, m1 = 0.1377 | – | 1202.6 | –
308.15 K, m1 = 0.1739 | – | 1204.4 | 79.37
318.15 K, m1 = 0.0273 | – | 1189.2 | –
318.15 K, m1 = 0.054 | – | 1190.7 | –
318.15 K, m1 = 0.058 | 0.794 | 1190.9 | 46.1
318.15 K, m1 = 0.0676 | – | 1191.9 | –
318.15 K, m1 = 0.0903 | – | 1192.5 | –
318.15 K, m1 = 0.1069 | – | 1193.6 | –
318.15 K, m1 = 0.1159 | 0.769 | 1194 | 48.94
318.15 K, m1 = 0.1377 | – | 1195.5 | –
318.15 K, m1 = 0.1739 | 0.745 | 1197.3 | 51.72
328.15 K, m1 = 0.0273 | – | 1182.2 | –
328.15 K, m1 = 0.054 | – | 1183.6 | –
328.15 K, m1 = 0.058 | – | 1183.9 | 31.69
328.15 K, m1 = 0.0676 | – | 1184.9 | –
328.15 K, m1 = 0.0903 | – | 1185.5 | –
328.15 K, m1 = 0.1069 | – | 1186.6 | –
328.15 K, m1 = 0.1159 | – | 1187 | 33.98
328.15 K, m1 = 0.1377 | – | 1188.4 | –
328.15 K, m1 = 0.1739 | – | 1190.3 | 35.69
338.15 K, m1 = 0.0273 | – | 1175.3 | –
338.15 K, m1 = 0.054 | – | 1177 | –
338.15 K, m1 = 0.058 | 1.5 | 1176.8 | 22.75
338.15 K, m1 = 0.0676 | – | 1177.9 | –
338.15 K, m1 = 0.0903 | – | 1178.6 | –
338.15 K, m1 = 0.1069 | – | 1179.6 | –
338.15 K, m1 = 0.1159 | 1.464 | 1180 | 23.85
338.15 K, m1 = 0.1377 | – | 1181.5 | –
338.15 K, m1 = 0.1739 | 1.425 | 1183.3 | 23.94
348.15 K, m1 = 0.0273 | – | 1168.4 | –
348.15 K, m1 = 0.054 | – | 1169.8 | –
348.15 K, m1 = 0.058 | – | 1169.8 | 16.93
348.15 K, m1 = 0.0676 | – | 1171 | –
348.15 K, m1 = 0.0903 | – | 1171.7 | –
348.15 K, m1 = 0.1069 | – | 1172.7 | –
348.15 K, m1 = 0.1159 | – | 1173.1 | 17.63
348.15 K, m1 = 0.1377 | – | 1174.6 | –
348.15 K, m1 = 0.1739 | – | 1176.4 | 17.97
358.15 K, m1 = 0.0273 | – | 1161.6 | –
358.15 K, m1 = 0.054 | – | 1163 | –
358.15 K, m1 = 0.058 | 2.47 | 1162.7 | 13
358.15 K, m1 = 0.0676 | – | 1164.2 | –
358.15 K, m1 = 0.0903 | – | 1164.8 | –
358.15 K, m1 = 0.1069 | – | 1165.9 | –
358.15 K, m1 = 0.1159 | 2.4 | 1166.3 | 13.53
358.15 K, m1 = 0.1377 | – | 1167.7 | –
358.15 K, m1 = 0.1739 | 2.35 | 1169.6 | 14.01
378.15 K, m1 = 0.058 | 3.66 | – | –
378.15 K, m1 = 0.1159 | 3.57 | – | –
378.15 K, m1 = 0.1739 | 3.5 | – | –
398.15 K, m1 = 0.058 | 5.04 | – | –
398.15 K, m1 = 0.1159 | 4.93 | – | –
398.15 K, m1 = 0.1739 | 4.84 | – | –
418.15 K, m1 = 0.058 | 6.58 | – | –
418.15 K, m1 = 0.1159 | 6.45 | – | –
418.15 K, m1 = 0.1739 | 6.35 | – | –
438.15 K, m1 = 0.058 | 8.24 | – | –
438.15 K, m1 = 0.1159 | 8.11 | – | –
438.15 K, m1 = 0.1739 | 7.98 | – | –
458.15 K, m1 = 0.058 | 10 | – | –
458.15 K, m1 = 0.1159 | 9.85 | – | –
458.15 K, m1 = 0.1739 | 9.7 | – | –
